Measured values reported in patent publication US10907197B2, “Probes for imaging huntingtin protein” (CHDI Foundation, Inc., priority 2014, dated 2021).

target: T1, Q46 protein aggregates (Homo sapiens, UniProt P42858, INS38QQQQQQQQQQQQQQQQQQQQQQQQQ); assay: Q46 Radioligand Binding Assay (RBA); settings: displacement of 10 nM [3H3]MK-3328 from 5 μM Q46 protein aggregates, 60 min at 37° C.
T1 construct: 33 μM GST-Q46 was incubated with 150 μg/mL thrombin in assay buffer (150 mM NaCl, 50 mM Tris pH 8.0) and 2 mM CaCl2 for 16 hr at 37° C; fused on or other part: GST at the N-terminus
T1 sequence (P42858 with tags, fused parts or gaps with the stated changes): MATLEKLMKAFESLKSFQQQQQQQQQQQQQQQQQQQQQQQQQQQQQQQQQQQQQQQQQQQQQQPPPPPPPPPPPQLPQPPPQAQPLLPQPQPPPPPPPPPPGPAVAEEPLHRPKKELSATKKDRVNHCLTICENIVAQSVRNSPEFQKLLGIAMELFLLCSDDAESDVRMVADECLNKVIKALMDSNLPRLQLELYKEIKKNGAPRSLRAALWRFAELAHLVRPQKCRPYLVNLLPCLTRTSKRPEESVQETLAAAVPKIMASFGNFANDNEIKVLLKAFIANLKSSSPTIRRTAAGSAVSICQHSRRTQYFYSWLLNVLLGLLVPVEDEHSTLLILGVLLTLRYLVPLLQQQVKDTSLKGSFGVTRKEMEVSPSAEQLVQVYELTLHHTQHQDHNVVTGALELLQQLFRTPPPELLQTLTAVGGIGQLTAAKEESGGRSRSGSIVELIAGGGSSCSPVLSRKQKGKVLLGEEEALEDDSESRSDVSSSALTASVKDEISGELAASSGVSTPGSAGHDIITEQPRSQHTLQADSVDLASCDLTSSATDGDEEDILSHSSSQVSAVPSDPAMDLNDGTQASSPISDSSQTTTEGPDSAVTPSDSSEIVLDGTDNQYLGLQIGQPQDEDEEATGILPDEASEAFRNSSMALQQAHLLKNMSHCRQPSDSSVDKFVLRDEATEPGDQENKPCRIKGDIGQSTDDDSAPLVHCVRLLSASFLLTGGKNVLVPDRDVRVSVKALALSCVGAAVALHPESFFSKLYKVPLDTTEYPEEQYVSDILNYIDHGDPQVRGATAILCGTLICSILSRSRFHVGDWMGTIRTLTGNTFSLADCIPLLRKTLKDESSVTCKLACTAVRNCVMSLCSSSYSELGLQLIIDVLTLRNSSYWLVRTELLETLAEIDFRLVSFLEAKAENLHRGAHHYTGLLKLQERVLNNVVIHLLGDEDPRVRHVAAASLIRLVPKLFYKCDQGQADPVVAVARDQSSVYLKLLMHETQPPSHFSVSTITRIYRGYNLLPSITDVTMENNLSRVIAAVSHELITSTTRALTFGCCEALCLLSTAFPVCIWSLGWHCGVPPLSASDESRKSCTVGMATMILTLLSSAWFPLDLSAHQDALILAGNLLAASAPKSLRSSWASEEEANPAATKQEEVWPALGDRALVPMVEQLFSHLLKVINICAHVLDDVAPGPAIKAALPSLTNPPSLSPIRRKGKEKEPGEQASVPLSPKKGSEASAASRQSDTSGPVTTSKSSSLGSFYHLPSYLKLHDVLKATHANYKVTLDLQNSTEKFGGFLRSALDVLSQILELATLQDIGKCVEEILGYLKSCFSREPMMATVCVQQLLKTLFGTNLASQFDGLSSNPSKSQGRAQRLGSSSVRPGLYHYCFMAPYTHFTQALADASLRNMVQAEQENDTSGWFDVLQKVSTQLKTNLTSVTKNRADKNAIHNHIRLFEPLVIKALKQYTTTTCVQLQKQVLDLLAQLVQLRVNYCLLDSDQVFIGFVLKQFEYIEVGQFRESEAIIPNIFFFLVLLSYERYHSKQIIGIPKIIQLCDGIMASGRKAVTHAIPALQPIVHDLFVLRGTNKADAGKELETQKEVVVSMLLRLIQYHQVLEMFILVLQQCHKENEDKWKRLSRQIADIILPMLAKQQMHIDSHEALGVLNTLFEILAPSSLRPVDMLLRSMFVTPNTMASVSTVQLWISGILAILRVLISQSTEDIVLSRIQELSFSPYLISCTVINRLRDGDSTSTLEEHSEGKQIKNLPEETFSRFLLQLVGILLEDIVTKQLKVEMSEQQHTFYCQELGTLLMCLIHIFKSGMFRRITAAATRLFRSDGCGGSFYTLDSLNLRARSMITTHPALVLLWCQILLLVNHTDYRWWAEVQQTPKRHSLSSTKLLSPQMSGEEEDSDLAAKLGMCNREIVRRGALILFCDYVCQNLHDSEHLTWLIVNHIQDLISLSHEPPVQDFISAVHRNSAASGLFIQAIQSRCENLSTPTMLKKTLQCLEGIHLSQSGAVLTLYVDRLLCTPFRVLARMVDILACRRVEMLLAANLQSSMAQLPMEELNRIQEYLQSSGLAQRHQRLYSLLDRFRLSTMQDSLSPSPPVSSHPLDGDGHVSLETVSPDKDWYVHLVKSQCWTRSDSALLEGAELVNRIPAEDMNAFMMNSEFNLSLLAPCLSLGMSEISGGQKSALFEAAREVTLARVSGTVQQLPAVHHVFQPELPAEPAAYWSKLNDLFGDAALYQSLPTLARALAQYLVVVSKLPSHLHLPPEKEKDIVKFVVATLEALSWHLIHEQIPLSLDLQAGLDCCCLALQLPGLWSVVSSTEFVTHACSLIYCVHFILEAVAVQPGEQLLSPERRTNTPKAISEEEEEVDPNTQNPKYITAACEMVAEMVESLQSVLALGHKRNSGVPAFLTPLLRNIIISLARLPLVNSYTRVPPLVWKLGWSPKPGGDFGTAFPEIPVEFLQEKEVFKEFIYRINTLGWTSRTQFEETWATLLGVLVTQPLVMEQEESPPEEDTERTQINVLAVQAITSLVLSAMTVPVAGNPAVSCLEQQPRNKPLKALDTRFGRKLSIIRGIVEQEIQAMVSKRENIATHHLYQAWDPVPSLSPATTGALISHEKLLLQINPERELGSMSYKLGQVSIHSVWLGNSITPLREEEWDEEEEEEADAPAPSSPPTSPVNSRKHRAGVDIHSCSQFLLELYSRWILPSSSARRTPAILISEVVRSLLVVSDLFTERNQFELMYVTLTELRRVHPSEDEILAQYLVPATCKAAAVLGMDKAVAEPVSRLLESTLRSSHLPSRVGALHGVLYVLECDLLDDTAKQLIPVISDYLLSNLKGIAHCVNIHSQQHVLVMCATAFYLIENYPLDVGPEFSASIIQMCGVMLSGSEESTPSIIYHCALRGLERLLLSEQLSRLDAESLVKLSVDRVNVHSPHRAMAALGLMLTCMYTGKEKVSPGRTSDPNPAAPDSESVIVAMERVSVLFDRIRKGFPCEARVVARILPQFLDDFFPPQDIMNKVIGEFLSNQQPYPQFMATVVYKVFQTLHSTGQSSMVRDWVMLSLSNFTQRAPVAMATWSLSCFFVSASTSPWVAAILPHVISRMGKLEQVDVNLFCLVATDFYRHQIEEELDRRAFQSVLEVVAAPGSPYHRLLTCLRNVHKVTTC
Method: Q46 Radioligand Binding Assay
For radioligand binding assays (RBA) GST-Q46 protein was generated based on a previous publication (Scherzinger et al. Cell, Vol. 90, 549-558, Aug. 8, 1997). For experiments 33 μM GST-Q46 was incubated with 150 μg/mL thrombin in assay buffer (150 mM NaCl, 50 mM Tris pH 8.0) and 2 mM CaCl2 for 16 hr at 37° C. Aggregated Q46 was pelleted by centrifugation for 5 min at 13,000 rpm in a bench top centrifuge and re-dissolved in the same volume of assay buffer. Test compounds were prepared by titration in DMSO at 11 concentrations from 33 μM to 1 nM. For the RBA, Q46 protein aggregates and test compounds were pre-incubated in assay buffer for 20 min at room temperature, in 140 μL/well in a 96-well plate (pp, round bottom). Then, ligand was added in 10 μL/well and incubated for 60 min at 37° C. Final assay concentrations were 1 μM to 30 pM test compound, 5 μM Q46 protein (equivalent monomer concentration) and 10 nM ligand [^3H3]MK-3328 (Harrision et al., ACS Med. Chem. Lett., 2 (2011), pp 498-502). Samples were transferred onto GF/B filter plates and washed 2× with 200 μL PBS using a Filtermate Harvester. After drying filter plates for 1 hr at 37° C., the back of the plates was sealed with foil and 30 μL/well scintillation fluid (Packard MicroScint 40) was added, incubated for incubated for 15 min in the dark and counted in a TopCount reader. […] IC50 values were determined with a sigmoidal inhibition model with four variables (top, bottom, slope, IC50) in a global fit using the normalized replicate data.

Q: With `COc1ccc2nc(-c3ncccc3Br)sc2c1` [2-(3-bromopyridin-2-yl)-6-methoxy-1,3-benzothiazole] as the compound, how does the IC50 read?
A: The IC50 was less than 100 nM.

Q: For `Oc1ccc2nc(-c3ccncc3Br)sc2c1` [2-(3-bromopyridin-4-yl)-1,3-benzothiazol-6-ol], which IC50 is on record?
A: The IC50 was 100 to 500 nM.

Q: `FCCOc1ccc2nc(-c3ccncc3Br)sc2c1` [2-(3-bromopyridin-4-yl)-6-(2-fluoroethoxy)-1,3-benzothiazole] was tested. Which IC50 did it give?
A: Its IC50 is less than 100 nM.

Q: `COc1ccc2nc(-c3ccncc3Br)sc2c1` [2-(3-bromopyridin-4-yl)-6-methoxy-1,3-benzothiazole] was tested. Which IC50 did it give?
A: The IC50 was less than 100 nM.

Q: With `COc1ccc2nc(-c3ccncc3F)sc2c1` [2-(3-fluoropyridin-4-yl)-6-methoxy-1,3-benzothiazole] as the compound, how does the IC50 read?
A: Its IC50 is less than 100 nM.

Q: `Cc1cccc(-c2nc3cc(N)ccc3o2)c1` [2-(3-methylphenyl)-1,3-benzoxazol-5-amine] was tested. Which IC50 did it give?
A: The IC50 was 100 to 500 nM.

Q: How did the IC50 turn out when `Cc1cccc(-c2nc3cc(N)cnc3o2)c1` [2-(3-methylphenyl)-[1,3]oxazolo[5,4-b]pyridin-6-amine] was run?
A: Its IC50 is greater than 500 nM.

Q: Which IC50 does the source give for `COc1ccc2oc(-c3ncccc3C#N)cc2c1` [2-(5-methoxy-1-benzofuran-2-yl)pyridine-3-carbonitrile] here?
A: The IC50 was less than 100 nM.

Q: Which IC50 does the source give for `COc1ccc2nc(-c3ccccc3C#N)sc2c1` [2-(6-methoxy-1,3-benzothiazol-2-yl)benzonitrile] here?
A: Its IC50 is less than 100 nM.

Q: `COc1ccc2nc(-c3ncccc3C#N)sc2c1` [2-(6-methoxy-1,3-benzothiazol-2-yl)pyridine-3-carbonitrile] was tested. Which IC50 did it give?
A: Its IC50 is less than 100 nM.

Q: With `COc1ccc2nc(-c3ccccc3C#N)oc2c1` [2-(6-methoxy-1,3-benzoxazol-2-yl)benzonitrile] as the compound, how does the IC50 read?
A: The IC50 was less than 100 nM.

Q: How did the IC50 turn out when `Nc1ccc2oc(-c3cccnc3)nc2c1` [2-(pyridin-3-yl)-1,3-benzoxazol-5-amine] was run?
A: Its IC50 is greater than 500 nM.

Q: For `COc1ccc2oc(-c3cccc(CN(C)C)c3C#N)cc2c1` [2-[(dimethylamino)methyl]-6-(5-methoxy-1-benzofuran-2-yl)benzonitrile], which IC50 is on record?
A: The IC50 was 100 to 500 nM.

Q: Which IC50 does the source give for `COc1ccc2oc(-c3cccc(Br)c3C#N)cc2c1` [2-bromo-6-(5-methoxy-1-benzofuran-2-yl)benzonitrile] here?
A: The IC50 was less than 100 nM.

Q: With `COc1ncc2cc(-c3ccccc3C#N)oc2n1` [2-{2-methoxyfuro[2,3-d]pyrimidin-6-yl}benzonitrile] as the compound, how does the IC50 read?
A: The IC50 was less than 100 nM.

Q: With `N#Cc1ccccc1-c1nc2cc3c(cc2o1)OCO3` [2-{4,6,10-trioxa-12-azatricyclo[7.3.0.0^3,^7]dodeca-1(9),2,7,11-tetraen-11-yl}benzonitrile] as the compound, how does the IC50 read?
A: The IC50 was less than 100 nM.

Q: How did the IC50 turn out when `N#Cc1ccccc1-c1cc2cc(Br)cnc2o1` [2-{5-bromofuro[2,3-b]pyridin-2-yl}benzonitrile] was run?
A: Its IC50 is less than 100 nM.

Q: With `COc1cnc2oc(-c3ccccc3C#N)cc2c1` [2-{5-methoxyfuro[2,3-b]pyridin-2-yl}benzonitrile] as the compound, how does the IC50 read?
A: The IC50 was less than 100 nM.

Q: For `COc1cc2cc(-c3ccccc3C#N)oc2cn1` [2-{5-methoxyfuro[2,3-c]pyridin-2-yl}benzonitrile], which IC50 is on record?
A: The IC50 was less than 100 nM.

Q: With `N#CC1=C(c2cc3cc(O)ccc3o2)N2CCN=C2S1` [3-(5-hydroxy-1-benzofuran-2-yl)-5H,6H-imidazo[2,1-b][1,3]thiazole-2-carbonitrile] as the compound, how does the IC50 read?
A: Its IC50 is less than 100 nM.

Q: Which IC50 does the source give for `COc1ccc2oc(C3=C(C#N)SC4=NCCN43)cc2c1` [3-(5-methoxy-1-benzofuran-2-yl)-5H,6H-imidazo[2,1-b][1,3]thiazole-2-carbonitrile] here?
A: The IC50 was less than 100 nM.

Q: With `COc1ccc2nc(-c3cnccc3C#N)sc2c1` [3-(6-methoxy-1,3-benzothiazol-2-yl)pyridine-4-carbonitrile] as the compound, how does the IC50 read?
A: Its IC50 is less than 100 nM.

Q: Which IC50 does the source give for `C#Cc1cnccc1-c1cc2cc(OC)ccc2o1` [3-ethynyl-4-(5-methoxy-1-benzofuran-2-yl)pyridine] here?
A: Its IC50 is less than 100 nM.

Q: How did the IC50 turn out when `COc1ccc2oc(-c3ccncc3I)cc2c1` [3-iodo-4-(5-methoxy-1-benzofuran-2-yl)pyridine] was run?
A: Its IC50 is 100 to 500 nM.

Q: Which IC50 does the source give for `N#Cc1cnccc1-c1nc2ccccc2s1` [4-(1,3-benzothiazol-2-yl)pyridine-3-carbonitrile] here?
A: Its IC50 is greater than 500 nM.

Q: How did the IC50 turn out when `COc1ccc2oc(-c3ccncc3)c(Br)c2c1` [4-(3-bromo-5-methoxy-1-benzofuran-2-yl)pyridine] was run?
A: The IC50 was less than 100 nM.

Q: Which IC50 does the source give for `N#Cc1cnccc1-c1cc2cc(O)ccc2o1` [4-(5-hydroxy-1-benzofuran-2-yl)pyridine-3-carbonitrile] here?
A: Its IC50 is less than 100 nM.

Q: Which IC50 does the source give for `COc1ccc2sc(-c3ccncc3C#N)nc2c1` [4-(5-methoxy-1,3-benzothiazol-2-yl)pyridine-3-carbonitrile] here?
A: Its IC50 is 100 to 500 nM.

Q: Which IC50 does the source give for `COc1ccc2oc(-c3cccc4[nH]ncc34)cc2c1` [4-(5-methoxy-1-benzofuran-2-yl)-1H-indazole] here?
A: Its IC50 is less than 100 nM.

Q: For `COc1ccc2oc(-c3ccncc3C)cc2c1` [4-(5-methoxy-1-benzofuran-2-yl)-3-methylpyridine], which IC50 is on record?
A: The IC50 was 100 to 500 nM.

Q: `COc1ccc2oc(-c3ccncc3C#N)cc2c1` [4-(5-methoxy-1-benzofuran-2-yl)pyridine-3-carbonitrile] was tested. Which IC50 did it give?
A: The IC50 was less than 100 nM.

Q: Which IC50 does the source give for `COc1ccc2oc(-c3ccncc3C#N)c(C)c2c1` [4-(5-methoxy-3-methyl-1-benzofuran-2-yl)pyridine-3-carbonitrile] here?
A: The IC50 was less than 100 nM.

Q: Which IC50 does the source give for `CNc1cnccc1-c1nc2ccc(OC)cc2s1` [4-(6-methoxy-1,3-benzothiazol-2-yl)-N-methylpyridin-3-amine] here?
A: Its IC50 is 100 to 500 nM.

Q: With `COc1ccc2nc(-c3ccc(C#N)cc3)sc2c1` [4-(6-methoxy-1,3-benzothiazol-2-yl)benzonitrile] as the compound, how does the IC50 read?
A: The IC50 was less than 100 nM.

Q: `COc1ccc2nc(-c3ccnc(C#N)c3)sc2c1` [4-(6-methoxy-1,3-benzothiazol-2-yl)pyridine-2-carbonitrile] was tested. Which IC50 did it give?
A: The IC50 was less than 100 nM.

Q: How did the IC50 turn out when `COc1ccc2nc(-c3ccncc3C#N)sc2c1` [4-(6-methoxy-1,3-benzothiazol-2-yl)pyridine-3-carbonitrile] was run?
A: Its IC50 is 100 to 500 nM.

Q: `COc1ccc2nc(-c3ccncc3C#N)oc2c1` [4-(6-methoxy-1,3-benzoxazol-2-yl)pyridine-3-carbonitrile] was tested. Which IC50 did it give?
A: The IC50 was less than 100 nM.

Q: How did the IC50 turn out when `COc1ccc2nc(-c3ccncc3C#N)[nH]c2c1` [4-(6-methoxy-1H-1,3-benzodiazol-2-yl)pyridine-3-carbonitrile] was run?
A: The IC50 was greater than 500 nM.

Q: How did the IC50 turn out when `COc1ccc2cc(-c3ccncc3C#N)ccc2c1` [4-(6-methoxynaphthalen-2-yl)pyridine-3-carbonitrile] was run?
A: The IC50 was 100 to 500 nM.

Q: How did the IC50 turn out when `COc1ccc2nc(-c3ccncc3C#N)ccc2c1` [4-(6-methoxyquinolin-2-yl)pyridine-3-carbonitrile] was run?
A: Its IC50 is 100 to 500 nM.

Q: For `N#Cc1cnccc1-c1cc2cc(OCCF)ccc2o1` [4-[5-(2-fluoroethoxy)-1-benzofuran-2-yl]pyridine-3-carbonitrile], which IC50 is on record?
A: The IC50 was less than 100 nM.

Q: How did the IC50 turn out when `N#Cc1cnccc1-c1cc2cc(OCCO)ccc2o1` [4-[5-(2-hydroxyethoxy)-1-benzofuran-2-yl]pyridine-3-carbonitrile] was run?
A: Its IC50 is 100 to 500 nM.

Q: Which IC50 does the source give for `COCCOc1ccc2oc(-c3ccncc3C#N)cc2c1` [4-[5-(2-methoxyethoxy)-1-benzofuran-2-yl]pyridine-3-carbonitrile] here?
A: Its IC50 is less than 100 nM.

Q: With `COCOc1ccc2oc(-c3cn(C)nc3C#N)cc2c1` [4-[5-(methoxymethoxy)-1-benzofuran-2-yl]-1-methyl-1H-pyrazole-3-carbonitrile] as the compound, how does the IC50 read?
A: Its IC50 is less than 100 nM.

Q: With `COCOc1ccc2oc(-c3ccncc3C#N)cc2c1` [4-[5-(methoxymethoxy)-1-benzofuran-2-yl]pyridine-3-carbonitrile] as the compound, how does the IC50 read?
A: Its IC50 is less than 100 nM.

Q: Which IC50 does the source give for `N#Cc1cnccc1-c1nc2ccc(OCCF)cc2s1` [4-[6-(2-fluoroethoxy)-1,3-benzothiazol-2-yl]pyridine-3-carbonitrile] here?
A: The IC50 was less than 100 nM.

Q: For `CN(C)c1ccc2nc(-c3ccncc3C#N)sc2c1` [4-[6-(dimethylamino)-1,3-benzothiazol-2-yl]pyridine-3-carbonitrile], which IC50 is on record?
A: The IC50 was less than 100 nM.
